Where two headings read alike, the source gives them in different places.
What was measured:
[1] = Plasma protein binding by equilibrium dialysis; type: in vitro ADME; settings: human plasma; for fraction unbound / recovery / remaining at 6 h: both sexes
[2] = Plasma protein binding by equilibrium dialysis; type: in vitro ADME; settings: mouse plasma; for recovery / remaining at 6 h / fraction unbound: both sexes, CD-1; for fraction unbound: read-out: %Bound (converted)
Caco-2 cells = test: Caco-2 permeability; settings: for Recovery% (BL-AP) / efflux ratio: Table S9
Lipophilicity logD7.4 = type: physicochemical; settings: pH 7.4
[3] = molecular target: T1, hERG potassium ion channel (Homo sapiens, UniProt Q12809); test: hERG safety evaluation by manual patch-clamp (HEK 293); type: cell-based; settings: mean ± SEM in Table S11
T1 construct: host or cells: HEK 293
From the text: hERG Safety evaluation by manual patch-clamp system
aIC50 values are presented as the mean ± SEM, n = 3 independent replicates unless otherwise
𝜇M) and run in triplicate. cValues a s previously reported in Ref. 1 .dMean of n = 2 independent
Points indicate the mean, and error bars indicate
the SD; n ≥ 2 independent replicates. IC 50 values ( 𝜇M) are reported beside the dose -response
curves and represent the mean ± SEM.

MDR1 = test: in vitro; settings: dog, MDCK-MDR1
MDR1 (P-gp) = test: in vitro; settings: dog, MDCK-MDR1
in vitro [4] = settings: dog, MDCK-MDR1
BCR-ABL1 wt = BCR-ABL1 wt (Homo sapiens, UniProt P00519); test: KinaseProfiler enzymatic radiometric kinase assay; settings: read-out: Kinase IC50 BCR-ABL1 wt; [ATP] = 10 µM, n = 2
MDCKII-MDR1 cells [5] = test: MDCKII-MDR1 permeability; settings: for Recovery% (BL-AP) / efflux ratio: Table S7
in vitro [6] = settings: human, Caco-2
Aqueous solubility = type: physicochemical; settings: pH 7.4
cSRC wt = cSRC wt (Homo sapiens, UniProt P12931); test: KinaseProfiler enzymatic radiometric kinase assay
[7] = Metabolic stability in hepatocytes; type: in vitro ADME, human; settings: for hepatocyte CLint: both sexes, read-out: HEPClint (H); for hepatocyte CLint / t1/2 (H): human hepatocytes
From the text: (§1) Metabolic stability in hepatocytes
(§2) Table S4. Hepatocyte details used in the hepatocyte stability assay.
(§3) Human Hepatocytes, Mixed-Gender BiolVT (Cat No. X008001)
(§4) Mouse Hepatocytes, Male-Gender BiolVT (Cat No. M005052)

[8] = Metabolic stability in hepatocytes; type: in vitro ADME, mouse
From the text: as §1, §2, §3, §4

P-glycoprotein (P-gp) = settings: Figure 1A; cited from earlier work
MDCKII-MDR1 cells [9] = settings: cited from earlier work
mutant BCR-ABL1 kinases = test: Biochemical kinase inhibition, summary statements; design: species or system human; settings: read-out: IC50 against mutant BCR-ABL1 kinases

Sequence of BCR-ABL1 wt (P00519 27-1130 limits assumed): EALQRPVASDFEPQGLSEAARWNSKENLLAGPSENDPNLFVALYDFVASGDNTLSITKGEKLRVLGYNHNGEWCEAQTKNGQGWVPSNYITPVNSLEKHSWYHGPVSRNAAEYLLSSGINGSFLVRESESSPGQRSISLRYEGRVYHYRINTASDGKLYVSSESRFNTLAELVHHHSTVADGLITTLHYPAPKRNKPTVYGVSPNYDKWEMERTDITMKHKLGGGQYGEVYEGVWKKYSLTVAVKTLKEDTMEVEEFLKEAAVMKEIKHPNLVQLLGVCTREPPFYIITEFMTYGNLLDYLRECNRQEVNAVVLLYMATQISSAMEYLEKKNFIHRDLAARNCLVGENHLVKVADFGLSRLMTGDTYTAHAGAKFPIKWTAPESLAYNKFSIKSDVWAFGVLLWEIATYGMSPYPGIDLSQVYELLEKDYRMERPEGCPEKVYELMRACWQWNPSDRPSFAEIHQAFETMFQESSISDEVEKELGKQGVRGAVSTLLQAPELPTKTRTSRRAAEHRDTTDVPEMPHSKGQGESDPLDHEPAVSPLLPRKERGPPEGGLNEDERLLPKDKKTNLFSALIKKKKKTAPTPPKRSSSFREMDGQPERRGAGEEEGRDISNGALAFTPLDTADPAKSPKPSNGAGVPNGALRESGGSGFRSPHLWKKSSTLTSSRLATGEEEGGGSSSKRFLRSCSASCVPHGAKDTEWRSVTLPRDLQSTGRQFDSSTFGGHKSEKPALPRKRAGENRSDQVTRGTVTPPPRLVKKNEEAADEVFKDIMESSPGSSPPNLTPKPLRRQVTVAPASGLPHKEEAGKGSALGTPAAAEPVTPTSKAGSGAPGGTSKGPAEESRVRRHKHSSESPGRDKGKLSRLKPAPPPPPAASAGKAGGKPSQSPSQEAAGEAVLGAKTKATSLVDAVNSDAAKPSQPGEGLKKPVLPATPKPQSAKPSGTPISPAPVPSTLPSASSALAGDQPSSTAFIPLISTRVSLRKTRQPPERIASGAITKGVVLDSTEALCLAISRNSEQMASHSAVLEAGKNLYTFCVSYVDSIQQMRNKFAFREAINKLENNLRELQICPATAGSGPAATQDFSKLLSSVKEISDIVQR
Sequence of cSRC wt (P12931 whole entry): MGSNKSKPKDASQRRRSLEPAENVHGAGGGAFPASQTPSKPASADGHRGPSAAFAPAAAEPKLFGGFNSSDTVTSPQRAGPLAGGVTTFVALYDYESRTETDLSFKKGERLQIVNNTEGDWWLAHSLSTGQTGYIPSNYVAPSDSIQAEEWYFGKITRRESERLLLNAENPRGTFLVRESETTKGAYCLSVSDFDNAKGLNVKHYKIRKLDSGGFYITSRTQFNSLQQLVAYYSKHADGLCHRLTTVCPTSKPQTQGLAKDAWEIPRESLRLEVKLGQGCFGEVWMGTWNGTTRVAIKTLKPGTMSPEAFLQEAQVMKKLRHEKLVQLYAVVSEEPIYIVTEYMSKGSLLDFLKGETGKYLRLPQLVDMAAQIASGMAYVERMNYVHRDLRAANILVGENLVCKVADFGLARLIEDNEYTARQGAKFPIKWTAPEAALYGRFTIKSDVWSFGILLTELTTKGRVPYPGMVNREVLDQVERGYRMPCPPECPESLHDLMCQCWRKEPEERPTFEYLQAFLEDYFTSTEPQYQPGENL
T1 sequence (Q12809 whole entry): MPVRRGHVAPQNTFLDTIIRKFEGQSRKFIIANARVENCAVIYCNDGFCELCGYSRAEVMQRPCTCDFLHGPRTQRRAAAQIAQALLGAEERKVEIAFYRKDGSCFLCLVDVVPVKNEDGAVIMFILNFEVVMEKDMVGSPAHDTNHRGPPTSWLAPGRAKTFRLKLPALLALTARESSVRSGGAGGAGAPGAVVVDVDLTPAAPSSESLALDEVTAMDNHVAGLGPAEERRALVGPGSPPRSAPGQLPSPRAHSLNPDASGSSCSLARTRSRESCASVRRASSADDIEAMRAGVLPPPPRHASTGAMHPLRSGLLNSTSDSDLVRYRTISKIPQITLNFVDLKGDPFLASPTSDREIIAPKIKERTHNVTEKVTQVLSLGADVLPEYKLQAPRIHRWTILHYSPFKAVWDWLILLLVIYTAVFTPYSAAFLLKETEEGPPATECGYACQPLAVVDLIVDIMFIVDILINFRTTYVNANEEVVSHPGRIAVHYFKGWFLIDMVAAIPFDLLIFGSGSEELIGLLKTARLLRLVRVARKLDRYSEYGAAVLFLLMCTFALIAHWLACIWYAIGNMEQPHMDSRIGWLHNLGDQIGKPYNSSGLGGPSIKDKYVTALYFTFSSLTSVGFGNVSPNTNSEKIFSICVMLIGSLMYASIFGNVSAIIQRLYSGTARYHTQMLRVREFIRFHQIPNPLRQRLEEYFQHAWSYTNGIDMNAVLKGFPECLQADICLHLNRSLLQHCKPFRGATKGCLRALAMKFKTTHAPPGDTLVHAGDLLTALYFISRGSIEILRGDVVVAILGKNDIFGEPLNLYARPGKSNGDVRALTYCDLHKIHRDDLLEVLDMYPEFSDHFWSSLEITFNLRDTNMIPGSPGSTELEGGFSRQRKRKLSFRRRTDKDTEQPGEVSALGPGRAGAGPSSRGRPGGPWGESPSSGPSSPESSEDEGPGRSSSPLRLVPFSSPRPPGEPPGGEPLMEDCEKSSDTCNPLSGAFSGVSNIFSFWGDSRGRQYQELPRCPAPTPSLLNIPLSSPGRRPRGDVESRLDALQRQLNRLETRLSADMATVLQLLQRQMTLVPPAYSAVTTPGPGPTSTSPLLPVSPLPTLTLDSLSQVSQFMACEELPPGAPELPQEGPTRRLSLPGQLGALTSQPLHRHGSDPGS

COc1cc(Cl)ccc1Nc1c(C#N)cnc2cc(OCCON3CCN(C)CC3)c(OC)cc12 [15a, 4-((4-Chloro-2-methoxyphenyl)amino)-6-methoxy-7-(2-((4-methylpiperazin-1-yl)oxy)ethoxy)quinoline-3-carbonitrile]
fraction unbound [1]: 0.0773
recovery [1]: 95.8%
remaining at 6 h [1]: 99.4%
%Unbound [1]: 7.73%
recovery [2]: 95.9%
remaining at 6 h [2]: 106%
fraction unbound [2]: 0.0971
%Unbound [2]: 9.71%
Recovery% (BL-AP) (Caco-2 cells): 78.22%
efflux ratio (Caco-2 cells): 6.24
Caco-2 Papp (a-b) (Caco-2 cells): 0.7 ×10⁻⁶ cm/s
Caco-2 Papp (b-a) (Caco-2 cells): 4.4 ×10⁻⁶ cm/s
logD (Lipophilicity logD7.4): 3.1
IC50 [3]: 4360 nM
Papp B→A (MDR1): 24.8 ×10⁻⁶ cm/s
efflux ratio (MDR1): 4.2
Papp A→B (MDR1 (P-gp)): 5.9 ×10⁻⁶ cm/s
Papp B→A (MDR1 (P-gp)): 24.8 ×10⁻⁶ cm/s
recovery (in vitro [4]): 84.5%
IC50 (BCR-ABL1 wt): 6 nM
Recovery% (BL-AP) (MDCKII-MDR1 cells [5]): 72.29%
Papp A→B (in vitro [6]): 0.71 ×10⁻⁶ cm/s
Papp B→A (in vitro [6]): 4.44 ×10⁻⁶ cm/s
efflux ratio (in vitro [6]): 6.3
recovery (in vitro [6]): 72.2%
Aq. Sol. (Aqueous solubility): 0.8 µM
IC50 (cSRC wt): 11 nM
Remaining Percentages ([7]; 0.5 min): 100.00%
Remaining Percentages ([7]; 15 min): 78.44%
Remaining Percentages ([7]; 30 min): 63.53%
Remaining Percentages ([7]; 60 min): 43.29%
Remaining Percentages ([7]; 90 min): 27.95%
Remaining Percentages ([7]; 120 min): 20.14%
hepatocyte CLint [7]: 26.8 µL/min/1e6 cells
t1/2 (H) [7]: 0.862 h
Remaining Percentages ([8]; 0.5 min): 100.00%
Remaining Percentages ([8]; 15 min): 55.53%
Remaining Percentages ([8]; 30 min): 28.57%
Remaining Percentages ([8]; 60 min): 13.26%
Remaining Percentages ([8]; 90 min): 6.75%
Remaining Percentages ([8]; 120 min): 2.89%

Cc1ccc(NC(=O)c2ccc(CN3CCN(C)CC3)cc2)cc1Nc1nccc(-c2cccnc2)n1 [Imatinib, imatinib]
P-gp efflux status (P-glycoprotein (P-gp)): P-gp Substrate

COc1cc2ncnc(Nc3cccc(Cl)c3F)c2cc1OC(=O)N1CCN(C)C[C@H]1C [AZD3759]
MDCKII-MDR1 Efflux Ratio (MDCKII-MDR1 cells [9]): 0.4
P-gp efflux status (MDCKII-MDR1 cells [9]): Not a P-gp Substrate

COc1cc2c(Nc3cccc(OC)c3F)c(C#N)cnc2cc1OCCON1CCN(C)CC1 [13a, 4-((2-Fluoro-3-methoxyphenyl)amino)-6-methoxy-7-(2-((4-methylpiperazin-1-yl)oxy)ethoxy)quinoline-3-carbonitrile]
fraction unbound [1]: 0.13
recovery [1]: 87.8%
remaining at 6 h [1]: 98.3%
%Unbound [1]: 12.97%
IC50 (mutant BCR-ABL1 kinases): ≥ 15 nM
Recovery% (BL-AP) (Caco-2 cells): 92.56%
efflux ratio (Caco-2 cells): 12.36
Caco-2 Papp (a-b) (Caco-2 cells): 2.7 ×10⁻⁶ cm/s
Caco-2 Papp (b-a) (Caco-2 cells): 33.6 ×10⁻⁶ cm/s
logD (Lipophilicity logD7.4): 2.6
Papp A→B (MDR1): 7.53 ×10⁻⁶ cm/s
Papp B→A (MDR1): 54.4 ×10⁻⁶ cm/s
efflux ratio (MDR1): 7.3
Papp A→B (MDR1 (P-gp)): 7.5 ×10⁻⁶ cm/s
Papp B→A (MDR1 (P-gp)): 54.4 ×10⁻⁶ cm/s
recovery (in vitro [4]): 93.1%
IC50 (BCR-ABL1 wt): 19 nM
Recovery% (BL-AP) (MDCKII-MDR1 cells [5]): 105.61%
efflux ratio (MDCKII-MDR1 cells [5]): 7.26
Papp A→B (in vitro [6]): 2.72 ×10⁻⁶ cm/s
Papp B→A (in vitro [6]): 33.6 ×10⁻⁶ cm/s
efflux ratio (in vitro [6]): 12.4
recovery (in vitro [6]): 84.8%
Aq. Sol. (Aqueous solubility): 29 µM
IC50 (cSRC wt): 34 nM
Remaining Percentages ([7]; 0.5 min): 100.00%
Remaining Percentages ([7]; 15 min): 97.02%
Remaining Percentages ([7]; 30 min): 95.67%
Remaining Percentages ([7]; 60 min): 80.41%
Remaining Percentages ([7]; 90 min): 67.22%
Remaining Percentages ([7]; 120 min): 54.89%
hepatocyte CLint [7]: 10.3 µL/min/1e6 cells
t1/2 (H) [7]: 2.243 h

C[C@H]1O[C@@H](O[C@H]2[C@@H](O)C[C@H](O[C@H]3[C@@H](O)C[C@H](O[C@H]4CC[C@@]5(C)[C@H](CC[C@@H]6[C@@H]5C[C@@H](O)[C@]5(C)[C@@H](C7=CC(=O)OC7)CC[C@]65O)C4)O[C@@H]3C)O[C@@H]2C)C[C@H](O)[C@@H]1O [Digoxin, reference compound]
Recovery% (BL-AP) (Caco-2 cells): 92.72%
Papp A→B (MDR1): 0.62 ×10⁻⁶ cm/s
Papp B→A (MDR1): 13.9 ×10⁻⁶ cm/s
efflux ratio (MDR1): 22.7
recovery (in vitro [4]): 82.4%
Recovery% (BL-AP) (MDCKII-MDR1 cells [5]): 93.20%
Papp A→B (in vitro [6]): 0.22 ×10⁻⁶ cm/s
Papp B→A (in vitro [6]): 12.6 ×10⁻⁶ cm/s
efflux ratio (in vitro [6]): 58.6
recovery (in vitro [6]): 89.9%

Cc1nc(Nc2ncc(C(=O)Nc3c(C)cccc3Cl)s2)cc(N2CCN(CCO)CC2)n1 [Dasatinib, dasatinib]
P-gp efflux status (P-glycoprotein (P-gp)): P-gp Substrate

O=C(Nc1ccc(OC(F)(F)Cl)cc1)c1cnc(N2CC[C@@H](O)C2)c(-c2ccn[nH]2)c1 [Asciminib, asciminib]
P-gp efflux status (P-glycoprotein (P-gp)): P-gp Substrate

COc1cc2c(Nc3cccc(OC)c3Cl)c(C#N)cnc2cc1OCCON1CCN(C)CC1 [12a, 4-((2-Chloro-3-methoxyphenyl)amino)-6-methoxy-7-(2-((4-methylpiperazin-1-yl)oxy)ethoxy)quinoline-3-carbonitrile]
fraction unbound [1]: 0.0737
recovery [1]: 92.5%
remaining at 6 h [1]: 97.8%
%Unbound [1]: 7.37%
recovery [2]: 92%
remaining at 6 h [2]: 96.7%
fraction unbound [2]: 0.119
%Unbound [2]: 11.93%
IC50 (mutant BCR-ABL1 kinases): ≥ 15 nM
Recovery% (BL-AP) (Caco-2 cells): 87.19%
efflux ratio (Caco-2 cells): 3.58
Caco-2 Papp (a-b) (Caco-2 cells): 6.5 ×10⁻⁶ cm/s
Caco-2 Papp (b-a) (Caco-2 cells): 23.1 ×10⁻⁶ cm/s
logD (Lipophilicity logD7.4): 2.7
IC50 [3]: 5160 nM
Papp A→B (MDR1): 12.5 ×10⁻⁶ cm/s
Papp B→A (MDR1): 39 ×10⁻⁶ cm/s
efflux ratio (MDR1): 3.1
Papp A→B (MDR1 (P-gp)): 12.5 ×10⁻⁶ cm/s
Papp B→A (MDR1 (P-gp)): 39 ×10⁻⁶ cm/s
recovery (in vitro [4]): 95%
IC50 (BCR-ABL1 wt): 20 nM
enhancement in permeability in MDCKII-MDR1 cells relative to bosutinib (MDCKII-MDR1 cells [5]): 31 fold
Recovery% (BL-AP) (MDCKII-MDR1 cells [5]): 91.60%
efflux ratio (MDCKII-MDR1 cells [5]): 3.22
Papp A→B (in vitro [6]): 6.46 ×10⁻⁶ cm/s
Papp B→A (in vitro [6]): 23.1 ×10⁻⁶ cm/s
efflux ratio (in vitro [6]): 3.6
recovery (in vitro [6]): 76.2%
Aq. Sol. (Aqueous solubility): 123 µM
IC50 (cSRC wt): 14 nM
Remaining Percentages ([7]; 0.5 min): 100.00%
Remaining Percentages ([7]; 15 min): 87.31%
Remaining Percentages ([7]; 30 min): 80.64%
Remaining Percentages ([7]; 60 min): 60.46%
Remaining Percentages ([7]; 90 min): 46.43%
Remaining Percentages ([7]; 120 min): 35.84%
hepatocyte CLint [7]: 17.2 µL/min/1e6 cells
t1/2 (H) [7]: 1.34 h

COc1cc2ncnc(Nc3ccc(F)c(Cl)c3)c2cc1OCCON1CCN(C)CC1 [6a]
MDCKII-MDR1 Efflux Ratio (MDCKII-MDR1 cells [9]): 8.7
P-gp efflux status (MDCKII-MDR1 cells [9]): P-gp Substrate

COCCc1ccc(OCC(O)CNC(C)C)cc1 (stereo not shown) [Metoprolol, reference compound]
Recovery% (BL-AP) (Caco-2 cells): 95.54%
Papp A→B (MDR1): 31.6 ×10⁻⁶ cm/s
Papp B→A (MDR1): 28.1 ×10⁻⁶ cm/s
efflux ratio (MDR1): 0.89
recovery (in vitro [4]): 112%
Recovery% (BL-AP) (MDCKII-MDR1 cells [5]): 99.15%
Papp A→B (in vitro [6]): 18.8 ×10⁻⁶ cm/s
Papp B→A (in vitro [6]): 19.4 ×10⁻⁶ cm/s
recovery (in vitro [6]): 95.3%
